Assay results reported in US4198504A, “[3-(Pyridinium)-7-(naphthyiridinyl carbonylamino)acetamido]cephalosporanic acid derivatives” (Bristol-Myers Company, priority 1978, dated 1980).
Read-outs that look alike come from different tables or passages of the source.

Experiments:
[1] = test system: E. coli (9), Klebsiella sp. (2), Pr. mirabilis (1), Sal. enteritidis (1); experiment: In vitro MIC, serial two-fold agar dilution, primary evaluation Gn-I (E. coli, Klebsiella sp., Pr. mirabilis, Sal. enteritidis); type: cell-based; conditions: CBPC = 100%, geometric mean of MICs
Description: (§1) Minimun inhibitory concentrations (MIC) were determined by the serial two-fold agar dilution method using Steers' apparatus on Mueller-Hinton agar plate against 31 test organisms for the primary screening and also against 64 strains of Pseudomonas aeruginosa for the secondary evaluation. The results are shown in Table 1 in terms of relative activity with respect to the standard compound CBPC (carbenicillin) which was set at 100%. In each group the calculation was based on the geometric mean of the observed MICs.
GnI = E. coli (9), Klebsiella sp. (2), Pr. mirabilis (1), Sal.

[2] = test system: Ent. cloacae (3), Pr. vulgaris (1), Pr. morganii (1), S. marcescen (1); experiment: In vitro MIC, serial two-fold agar dilution, primary evaluation Gn-II (Ent. cloacae, Pr. vulgaris, Pr. morganii, S. marcescens); type: cell-based; conditions: CBPC = 100%, geometric mean of MICs
Description: as §1
GnII = Ent. cloacae (3), Pr. vulgaris (1), Pr. morganii (1), S. marcescen

[3] = Antibiotic blood levels in mice following intramuscular administration (paper disc-agar diffusion, Escherichia coli NIHJ as assay organism); type: in vivo; conditions: mouse, im, I.M., 20 mg./kg.; for half-life: read-out: Blood level, Half-life; for Cmax: read-out: Blood level, Peak Concentration
Description: Antibiotic blood levels were determined in mice following intramuscular administration of the test compounds at 20 mg./kg. The blood samples were collected from the orbital sinuses into heparinized capillary tubes at 15, 30, 60 and 120 minutes after administration. The antibiotic concentration was determined by the paper disc-agar diffusion method using Escherichia coli NIHJ as the assay organism.

Escherichia coli Juhl = experiment: In vivo efficacy, experimental infection in mice, intramuscular treatment, Escherichia coli Juhl; design: species or system Escherichia coli (infected mice); conditions: im, 120 h, read-out: PD50 Escherichia coli Juhl
Description: (§2) The in vivo efficacy was evaluated by intramuscular treatment against three kinds of experimental infection in mice.
(§3) The in vivo tests were carried out using the following three pathogenic organisms:
(§4) Mice were challenged intraperitoneally with approximately a 100×LD50 dose of the pathogens in a 5% mucin suspension. The mice were treated with test compound by I.M. route immediately after the bacterial challenge.

[4] = test system: Pseudomonas aeruginosa A9843; experiment: In vivo efficacy, experimental infection in mice, intramuscular treatment, Pseudomonas aeruginosa A9843; design: species or system Pseudomonas aeruginosa (infected mice); conditions: A9843, im, 120 h, read-out: PD50 Pseudomonas aeruginosa A9843
Description: as §2, §3
Pseudomonas aeruginosa A9843
as §4

Pseudomonas aeruginosa = experiment: In vitro MIC, serial two-fold agar dilution, secondary evaluation against Pseudomonas aeruginosa strains; type: cell-based; conditions: CBPC = 100%, geometric mean of MICs
Description: as §1

[5] = test system: Staphylococcus aureus Smith; experiment: In vivo efficacy, experimental infection in mice, intramuscular treatment, Staphylococcus aureus Smith; design: species or system Staphylococcus aureus (infected mice); conditions: im, 120 h, read-out: PD50 Staphylococcus aureus Smith
Description: as §2, §3
Staphylococcus aureus Smith
as §4

S. aureus = experiment: In vitro MIC, serial two-fold agar dilution, primary evaluation Gp (S. aureus, 6 strains); type: cell-based; conditions: CBPC = 100%, geometric mean of MICs
Description: as §1
*GP = S. aureus (6 strains);

Ps. aeruginosa = experiment: In vitro MIC, serial two-fold agar dilution, primary evaluation Ps (6 strains); type: cell-based; conditions: CBPC = 100%, geometric mean of MICs
Description: as §1
Ps. = Ps. aeruginosa (6).

[6] = I.M., 100×LD50 challenge i.p., 5 days

## O=C([O-])C1=C(C[n+]2cccc(C(=O)O)c2)CSC2C(NC(=O)[C@H](NC(=O)c3cnc4cccnc4c3O)c3ccc(O)cc3)C(=O)N12 (some centres unmarked) [BB-S579]
[1]; Mueller-Hinton agar
  In vitro relative activity, primary evaluation Gn-I (13): 230%
[2]; Mueller-Hinton agar
  In vitro relative activity, primary evaluation Gn-II (6): 22%
[3]
  half-life: 75 min
  Cmax: 12000 ng/mL
Escherichia coli Juhl; [6]
  ED50: 1.8 mg/kg
[4]; [6]
  ED50: 6.4 mg/kg
Pseudomonas aeruginosa; 61-64 strains
  In vitro relative activity, secondary, Pseudomonas aeruginosa (61-64): 2780%
[5]; [6]
  ED50: 2 mg/kg
S. aureus; Mueller-Hinton agar
  In vitro relative activity, primary evaluation Gp (6): 28%
Ps. aeruginosa; Mueller-Hinton agar
  In vitro relative activity, primary evaluation Ps (6): 2880%

## O=C(O)Cc1ccc[n+](CC2=C(C(=O)[O-])N3C(=O)C(NC(=O)[C@H](NC(=O)c4cnc5cccnc5c4O)c4ccc(O)cc4)C3SC2)c1 (stereo partly drawn) [BB-S580, 7-[D-α-(4-Hydroxy-1,5-naphthyridine-3-carboxamido)-α-(4-hydroxyphenyl)acetamido]-3-(3-carboxymethylpyridinium)methyl-3-cephem-4-carboxylate]
[1]; Mueller-Hinton agar
  In vitro relative activity, primary evaluation Gn-I (13): 359%
[2]; Mueller-Hinton agar
  In vitro relative activity, primary evaluation Gn-II (6): 33%
[3]
  half-life: 33 min
  Cmax: 16500 ng/mL
Escherichia coli Juhl; [6]
  ED50: 1.2 mg/kg
[4]; [6]
  ED50: 6.4 mg/kg
Pseudomonas aeruginosa; 61-64 strains
  In vitro relative activity, secondary, Pseudomonas aeruginosa (61-64): 1780%
[5]; [6]
  ED50: 2.6 mg/kg
S. aureus; Mueller-Hinton agar
  In vitro relative activity, primary evaluation Gp (6): 27%
Ps. aeruginosa; Mueller-Hinton agar
  In vitro relative activity, primary evaluation Ps (6): 2490%

## O=C([O-])C1=C(C[n+]2ccc(C(=O)O)cc2)CSC2C(NC(=O)[C@H](NC(=O)c3cnc4cccnc4c3O)c3ccc(O)cc3)C(=O)N12 (stereo partly drawn) [BB-S584, 7-[D-α-(4-Hydroxy-1,5-naphthyridine-3-carboxamido)-α-(4-hydroxyphenyl)acetamido]-3-(4-carboxypyridinium)methyl-3-cephem-4-carboxylate]
[1]; Mueller-Hinton agar
  In vitro relative activity, primary evaluation Gn-I (13): 166%
[2]; Mueller-Hinton agar
  In vitro relative activity, primary evaluation Gn-II (6): 14%
[3]
  half-life: 81 min
  Cmax: 12500 ng/mL
Escherichia coli Juhl; [6]
  ED50: 4.2 mg/kg
[4]; [6]
  ED50: 36 mg/kg
Pseudomonas aeruginosa; 61-64 strains
  In vitro relative activity, secondary, Pseudomonas aeruginosa (61-64): 1180%
[5]; [6]
  ED50: 7.6 mg/kg
S. aureus; Mueller-Hinton agar
  In vitro relative activity, primary evaluation Gp (6): 22%
Ps. aeruginosa; Mueller-Hinton agar
  In vitro relative activity, primary evaluation Ps (6): 725%

## O=C([O-])C1=C(C[n+]2ccccc2C(=O)O)CSC2C(NC(=O)[C@H](NC(=O)c3cnc4cccnc4c3O)c3ccc(O)cc3)C(=O)N12 (stereo partly drawn) [BB-S585, 7-[D-α-(4-Hydroxy-1,5-naphthyridine-3-carboxamido)-α-(4-hydroxyphenyl)acetamido]-3-(2-carboxypyridinium)methyl-3-cephem-4-carboxylate]
[1]; Mueller-Hinton agar
  In vitro relative activity, primary evaluation Gn-I (13): 53%
[2]; Mueller-Hinton agar
  In vitro relative activity, primary evaluation Gn-II (6): 4%
[3]
  half-life: 60 min
  Cmax: 5800 ng/mL
Escherichia coli Juhl; [6]
  ED50: 7.4 mg/kg
[4]; [6]
  ED50: 86 mg/kg
Pseudomonas aeruginosa; 61-64 strains
  In vitro relative activity, secondary, Pseudomonas aeruginosa (61-64): 466%
[5]; [6]
  ED50: 10 mg/kg
S. aureus; Mueller-Hinton agar
  In vitro relative activity, primary evaluation Gp (6): 20%
Ps. aeruginosa; Mueller-Hinton agar
  In vitro relative activity, primary evaluation Ps (6): 297%

## O=C([O-])C1=C(C[n+]2cccc(S(=O)(=O)O)c2)CSC2C(NC(=O)[C@H](NC(=O)c3cnc4cccnc4c3O)c3ccc(O)cc3)C(=O)N12 (stereo partly drawn) [BB-S587, 7-[D-α-(4-Hydroxy-1,5-naphthyridine-3-carboxamido)-α-(4-hydroxyphenyl)acetamido]-3-(3-sulfopyridinium)methyl-3-cephem-4-carboxylate]
[1]; Mueller-Hinton agar
  In vitro relative activity, primary evaluation Gn-I (13): 166%
[1]; Lot 2
  In vitro relative activity, primary evaluation Gn-I (13): 87%
[2]; Mueller-Hinton agar
  In vitro relative activity, primary evaluation Gn-II (6): 16%
[2]; Lot 2
  In vitro relative activity, primary evaluation Gn-II (6): 19%
[3]
  half-life: 40 min
  Cmax: 3000 ng/mL
Escherichia coli Juhl; Lot 2, I.M.
  ED50: 2.4 mg/kg
[4]; [6]
  ED50: 3.13 mg/kg
[4]; Lot 2, I.M.
  ED50: 2.2 mg/kg
Pseudomonas aeruginosa; 61-64 strains
  In vitro relative activity, secondary, Pseudomonas aeruginosa (61-64): 3380%
Pseudomonas aeruginosa; Lot 2
  In vitro relative activity, secondary, Pseudomonas aeruginosa (61-64): 3570%
[5]; Lot 2, I.M.
  ED50: 3.7 mg/kg
S. aureus; Mueller-Hinton agar
  In vitro relative activity, primary evaluation Gp (6): 28%
S. aureus; Lot 2
  In vitro relative activity, primary evaluation Gp (6): 56%
Ps. aeruginosa; Mueller-Hinton agar
  In vitro relative activity, primary evaluation Ps (6): 2378%
Ps. aeruginosa; Lot 2
  In vitro relative activity, primary evaluation Ps (6): 3200%

## O=C([O-])C1=C(C[n+]2ccc(CCS(=O)(=O)O)cc2)CSC2C(NC(=O)[C@H](NC(=O)c3cnc4cccnc4c3O)c3ccc(O)cc3)C(=O)N12 (stereo partly drawn) [BB-S588, 7-[D-α-(4-Hydroxy-1,5-naphthyridine-3-carboxamido)-α-(4-hydroxyphenyl)acetamido]-3-(4-sulfoethylpyridinium)methyl-3-cephem-4-carboxylate]
[1]; Mueller-Hinton agar
  In vitro relative activity, primary evaluation Gn-I (13): 350%
[2]; Mueller-Hinton agar
  In vitro relative activity, primary evaluation Gn-II (6): 45%
[3]
  half-life: 59 min
  Cmax: 4400 ng/mL
Escherichia coli Juhl; [6]
  ED50: 1.56 mg/kg
[4]; [6]
  ED50: 6.8 mg/kg
Pseudomonas aeruginosa; 61-64 strains
  In vitro relative activity, secondary, Pseudomonas aeruginosa (61-64): 2030%
[5]; [6]
  ED50: 5 mg/kg
S. aureus; Mueller-Hinton agar
  In vitro relative activity, primary evaluation Gp (6): 45%
Ps. aeruginosa; Mueller-Hinton agar
  In vitro relative activity, primary evaluation Ps (6): 1767%

## O=C(O)C=Cc1ccc[n+](CC2=C(C(=O)[O-])N3C(=O)C(NC(=O)[C@H](NC(=O)c4cnc5cccnc5c4O)c4ccc(O)cc4)C3SC2)c1 (stereo partly drawn) [BB-S589, 7-[D-α-(4-Hydroxy-1,5-naphthyridine-3-carboxamido)-α-(4-hydroxyphenyl)acetamido]-3-[3-(2-carboxyvinyl)pyridinium]methyl-3-cephem-4-carboxylate]
[1]; Mueller-Hinton agar
  In vitro relative activity, primary evaluation Gn-I (13): 146%
[1]; Lot 2
  In vitro relative activity, primary evaluation Gn-I (13): 107%
[2]; Mueller-Hinton agar
  In vitro relative activity, primary evaluation Gn-II (6): 14%
[2]; Lot 2
  In vitro relative activity, primary evaluation Gn-II (6): 44%
[3]
  half-life: 60 min
  Cmax: 7000 ng/mL
Escherichia coli Juhl; Lot 2, I.M.
  ED50: 1.9 mg/kg
[4]; [6]
  ED50: 4 mg/kg
[4]; Lot 2, I.M.
  ED50: 3.2 mg/kg
Pseudomonas aeruginosa; 61-64 strains
  In vitro relative activity, secondary, Pseudomonas aeruginosa (61-64): 1880%
Pseudomonas aeruginosa; Lot 2
  In vitro relative activity, secondary, Pseudomonas aeruginosa (61-64): 2970%
[5]; Lot 2, I.M.
  ED50: 3.7 mg/kg
S. aureus; Mueller-Hinton agar
  In vitro relative activity, primary evaluation Gp (6): 56%
S. aureus; Lot 2
  In vitro relative activity, primary evaluation Gp (6): 45%
Ps. aeruginosa; Mueller-Hinton agar
  In vitro relative activity, primary evaluation Ps (6): 1449%
Ps. aeruginosa; Lot 2
  In vitro relative activity, primary evaluation Ps (6): 2900%

## O=C(O)Cc1cc[n+](CC2=C(C(=O)[O-])N3C(=O)C(NC(=O)[C@H](NC(=O)c4cnc5cccnc5c4O)c4ccc(O)cc4)C3SC2)cc1 (stereo partly drawn) [BB-S591, 7-[D-α-(4-Hydroxy-1,5-naphthyridine-3-carboxamido)-α-(4-hydroxyphenyl)acetamido]-3-(4-carboxymethylpyridinium)methyl-3-cephem-4-carboxylate]
[1]; Mueller-Hinton agar
  In vitro relative activity, primary evaluation Gn-I (13): 167%
[2]; Mueller-Hinton agar
  In vitro relative activity, primary evaluation Gn-II (6): 18%
[3]
  half-life: 54 min
  Cmax: 11000 ng/mL
Escherichia coli Juhl; [6]
  ED50: 6.25 mg/kg
[4]; [6]
  ED50: 12.5 mg/kg
Pseudomonas aeruginosa; 61-64 strains
  In vitro relative activity, secondary, Pseudomonas aeruginosa (61-64): 1160%
[5]; [6]
  ED50: 6.15 mg/kg
S. aureus; Mueller-Hinton agar
  In vitro relative activity, primary evaluation Gp (6): 31%
Ps. aeruginosa; Mueller-Hinton agar
  In vitro relative activity, primary evaluation Ps (6): 883%

## O=C([O-])C1=C(C[n+]2cccc(S(=O)(=O)O)c2)CSC2C(NC(=O)[C@H](NC(=O)c3cnc4cccnc4c3O)c3ccccc3)C(=O)N12 (stereo partly drawn) [BB-S607, 7-[D-α-(4-Hydroxy-1,5-naphthyridine-3-carboxamido)-α-phenylacetamido]-3-(3-sulfopyridinium)methyl-3-cephem-4-carboxylate]
[1]; Mueller-Hinton agar
  In vitro relative activity, primary evaluation Gn-I (13): 24%
[2]; Mueller-Hinton agar
  In vitro relative activity, primary evaluation Gn-II (6): 13%
[3]
  half-life: 60 min
  Cmax: 10000 ng/mL
[4]; [6]
  ED50: 23 mg/kg
Pseudomonas aeruginosa; 61-64 strains
  In vitro relative activity, secondary, Pseudomonas aeruginosa (61-64): 695%
[5]; [6]
  ED50: 4.5 mg/kg
S. aureus; Mueller-Hinton agar
  In vitro relative activity, primary evaluation Gp (6): 35%
Ps. aeruginosa; Mueller-Hinton agar
  In vitro relative activity, primary evaluation Ps (6): 883%
